Our source for the IC50 values is US10526327B2, “Histone demethylase inhibitors” (CELGENE QUANTICEL RESEARCH, INC., priority 2013, dated 2020).

The target of the assay is T1, Jarid1A (Homo sapiens, UniProt P29375).
T1 construct: purchased BPS Bioscience 50110
T1 sequence (P29375 1-1090): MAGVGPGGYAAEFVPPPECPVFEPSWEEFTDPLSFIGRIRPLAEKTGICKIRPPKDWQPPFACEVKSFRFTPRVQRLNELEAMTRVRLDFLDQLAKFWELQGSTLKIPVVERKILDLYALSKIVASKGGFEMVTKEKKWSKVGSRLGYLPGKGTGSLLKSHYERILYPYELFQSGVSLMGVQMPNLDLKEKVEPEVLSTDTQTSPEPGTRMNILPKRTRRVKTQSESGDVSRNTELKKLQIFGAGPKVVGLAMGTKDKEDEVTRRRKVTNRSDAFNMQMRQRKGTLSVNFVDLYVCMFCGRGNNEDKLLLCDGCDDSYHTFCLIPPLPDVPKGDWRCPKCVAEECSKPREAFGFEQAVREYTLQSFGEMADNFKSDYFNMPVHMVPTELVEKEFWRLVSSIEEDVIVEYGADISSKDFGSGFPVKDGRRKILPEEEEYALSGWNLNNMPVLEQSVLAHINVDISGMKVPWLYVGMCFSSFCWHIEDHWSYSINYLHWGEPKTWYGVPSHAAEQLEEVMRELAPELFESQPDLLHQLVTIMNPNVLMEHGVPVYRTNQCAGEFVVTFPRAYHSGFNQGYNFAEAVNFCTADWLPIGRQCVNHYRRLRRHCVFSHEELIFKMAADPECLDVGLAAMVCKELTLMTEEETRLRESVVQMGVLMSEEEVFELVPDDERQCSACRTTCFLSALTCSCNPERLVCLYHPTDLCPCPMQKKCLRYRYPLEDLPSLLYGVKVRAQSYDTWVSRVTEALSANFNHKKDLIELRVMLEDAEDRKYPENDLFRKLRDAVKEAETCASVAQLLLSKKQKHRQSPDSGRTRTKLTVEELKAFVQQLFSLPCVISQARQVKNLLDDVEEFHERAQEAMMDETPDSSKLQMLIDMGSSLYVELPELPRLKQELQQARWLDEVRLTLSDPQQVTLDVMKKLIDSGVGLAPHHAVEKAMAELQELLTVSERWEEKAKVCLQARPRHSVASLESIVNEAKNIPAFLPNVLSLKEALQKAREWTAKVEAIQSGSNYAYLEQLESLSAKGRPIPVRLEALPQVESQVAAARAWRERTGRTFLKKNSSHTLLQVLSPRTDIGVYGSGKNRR
In words: Jarid1A in vitro enzyme inhibition assay (TR-FRET). Format: biochemical. The gist of the method: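 Demethylation of 300 nM biotin-H3K4me3 peptide by 1 nM baculovirus-expressed Jarid1A (aa 1–1090) with 2 μM α-ketoglutarate, Fe(II) and ascorbate, pH 7.3, 30 min at room temperature. Stopped with EDTA; H3K4me1-2 product detected by TR-FRET (Eu anti-H3K4me1-2/streptavidin-APC). IC50 fitted from 665/615 ratio over 11-point dilutions.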

Bounds are passed on as bounds.

A word on the IC50: it is the concentration that inhibits the measured activity by half. For `O=S(=O)(C1CC1)N1CCCC(n2cc(Oc3nc(O)c4ccncc4n3)cn2)C1` (stereo in doubt) [Example 151, 2-({1-[(3S)-1-(cyclopropanesulfonyl)piperidin-3-yl]-1H-pyrazol-4-yl}oxy)pyrido[3,4-d]pyrimidin-4-ol], the IC50 was at most 100 nM. In the case of `Oc1nc(Oc2cnn(C3CCCN(c4ccc(F)cc4)C3)c2)nc2cnccc12` (stereo in doubt) [Example 169, 2-({1-[(3R)-1-(4-fluorophenyl)piperidin-3-yl]-1H-pyrazol-4-yl}oxy)pyrido[3,4-d]pyrimidin-4-ol], the half-inhibitory concentration (IC50) is at most 100 nM.

For `Oc1nc(OCCC(F)(F)F)nc2cnccc12` [Example 13, 2-(3,3,3-trifluoropropoxy)pyrido[3,4-d]pyrimidin-4-ol], the IC50 is at most 100 nM. `CC(C)COc1nc(O)c2ccncc2n1` [Example 14, 2-(2-methylpropoxy)pyrido[3,4-d]pyrimidin-4-ol] had an IC50 of 100 to 1000 nM. In the case of `CC(C)CCOc1nc(O)c2ccncc2n1` [Example 15, 2-(3-methylbutoxy)pyrido[3,4-d]pyrimidin-4-ol] it was at most 100 nM; in that of `CCC(C)COc1nc(O)c2ccncc2n1` (centres unmarked) [Example 16, 2-(2-methylbutoxy)pyrido[3,4-d]pyrimidin-4-ol], 100 to 1000 nM. As for `CC(COc1nc(O)c2ccncc2n1)c1ccccc1` (centres unmarked) [Example 17, 2-(2-phenylpropoxy)pyrido[3,4-d]pyrimidin-4-ol], the IC50 fell in the range of 100 to 1000 nM.

For `Oc1nc(OCCc2ccccc2)nc2cnccc12` [Example 18, 2-(2-phenylethoxy)pyrido[3,4-d]pyrimidin-4-ol], the IC50 was at most 100 nM. `CC(Cc1ccccc1)Oc1nc(O)c2ccncc2n1` (centres unmarked) [Example 19, 2-(1-phenylpropan-2-yloxy)pyrido[3,4-d]pyrimidin-4-ol]: the IC50 is 1000 to 10000 nM.

`Oc1nc(OCCCC(F)(F)F)nc2cnccc12` [Example 20, 2-(4,4,4-trifluorobutoxy)pyrido[3,4-d]pyrimidin-4-ol]: the IC50 was at most 100 nM. As for `CN(C)CCCOc1nc(O)c2ccncc2n1` [Example 21, 2-[3-(dimethylamino)propoxy]pyrido[3,4-d]pyrimidin-4-ol], the figure is 100 to 1000 nM; as for `COCCOc1nc(O)c2ccncc2n1` [Example 22, 2-(2-methoxyethoxy)pyrido[3,4-d]pyrimidin-4-ol], 100 to 1000 nM; as for `Cn1cnc(-c2nccc3c(O)nc(OCc4ccccc4C(F)(F)F)nc23)c1` [Example 107, 8-(1-methyl-1H-imidazol-4-yl)-2-{[2-(trifluoromethyl)phenyl]methoxy}pyrido[3,4-d]pyrimidin-4-ol], 100 to 1000 nM.

Regarding `Cn1cnc(-c2nccc3c(O)nc(O[C@H](c4ccccc4)C(F)(F)F)nc23)c1` [Example 108, 8-(1-methyl-1H-imidazol-4-yl)-2-[(1R)-2,2,2-trifluoro-1-phenylethoxy]pyrido[3,4-d]pyrimidin-4-ol], the IC50 fell in the range of 1000 to 10000 nM. Regarding `Cn1cnc(-c2nccc3c(O)nc(O[C@@H](c4ccccc4)C(F)(F)F)nc23)c1` [Example 109, 8-(1-methyl-1H-imidazol-4-yl)-2-[(1S)-2,2,2-trifluoro-1-phenylethoxy]pyrido[3,4-d]pyrimidin-4-ol], the IC50 was 1000 to 10000 nM. Take `CCC(Oc1nc(O)c2ccnc(-c3cn(C)cn3)c2n1)C(F)(F)F` (centres unmarked) [Example 110, 8-(1-methyl-1H-imidazol-4-yl)-2-[(1,1,1-trifluorobutan-2-yl)oxy]pyrido[3,4-d]pyrimidin-4-ol]: the IC50 lay in the range of 100 to 1000 nM. Take `Cn1cnc(-c2nccc3c(O)nc(OCc4ccc(C(F)(F)F)cc4)nc23)c1` [Example 111, 8-(1-methyl-1H-imidazol-4-yl)-2-{[4-(trifluoromethyl)phenyl]methoxy}pyrido[3,4-d]pyrimidin-4-ol]: the IC50 was at most 100 nM. On to `Cn1cnc(-c2nccc3c(O)nc(OCc4ccc(Cl)cc4)nc23)c1` [Example 112, 2-[(4-chlorophenyl)methoxy]-8-(1-methyl-1H-imidazol-4-yl)pyrido[3,4-d]pyrimidin-4-ol], for which the IC50 was in the range of 100 to 1000 nM. Turning to `Cn1cnc(-c2nccc3c(O)nc(Oc4ccc(Cl)c(Cl)c4)nc23)c1` [Example 113, 2-(3,4-dichlorophenoxy)-8-(1-methyl-1H-imidazol-4-yl)pyrido[3,4-d]pyrimidin-4-ol], the IC50 is at most 100 nM. As for `Oc1nc(Oc2ccc(Cl)c(Cl)c2)nc2cnccc12` [Example 114, 2-(3,4-dichlorophenoxy)pyrido[3,4-d]pyrimidin-4-ol], the figure is 100 to 1000 nM; as for `CCC(c1ccccc1)n1cc(Oc2nc(O)c3ccncc3n2)cn1` (centres unmarked) [Example 115, 2-{[1-(1-phenylpropyl)-1H-pyrazol-4-yl]oxy}pyrido[3,4-d]pyrimidin-4-ol], at most 100 nM. Molecule `Oc1nc(Oc2cnn(C(c3ccccc3)C3CC3)c2)nc2cnccc12` (centres unmarked) [Example 116, 2-({1-[cyclopropyl(phenyl)methyl]-1H-pyrazol-4-yl}oxy)pyrido[3,4-d]pyrimidin-4-ol] showed an IC50 of at most 100 nM.

Consider `C[C@H](c1ccccc1)n1cc(Oc2nc(O)c3ccncc3n2)cn1` [Example 117, 2-({1-[(1R)-1-phenylethyl]-1H-pyrazol-4-yl}oxy)pyrido[3,4-d]pyrimidin-4-ol], for which the IC50 was at most 100 nM. In the case of `C[C@@H](c1ccccc1)n1cc(Oc2nc(O)c3ccncc3n2)cn1` [Example 118, 2-({1-[(1S)-1-phenylethyl]-1H-pyrazol-4-yl}oxypyrido) [3,4-d]pyrimidin-4-ol] it was at most 100 nM. Consider `C[C@H](c1ccccc1F)n1cc(Oc2nc(O)c3ccncc3n2)cn1` [Example 119, 2-({1-[(1R)-1-(2-fluorophenyl)ethyl]-1H-pyrazol-4-yl}oxy)pyrido[3,4-d]pyrimidin-4-ol], for which the IC50 was at most 100 nM. `C[C@@H](c1ccccc1F)n1cc(Oc2nc(O)c3ccncc3n2)cn1` [Example 120, 2-({1-[(1s)-1-(2-fluorophenyl)ethyl]-1H-pyrazol-4-yl}oxy)pyrido[3,4-d]pyrimidin-4-ol] registered an IC50 of at most 100 nM. In turn, `Oc1nc(Oc2cnn(Cc3ccccc3Cl)c2)nc2cnccc12` [Example 121, 2-({1-[(2-chlorophenyl)methyl]-1H-pyrazol-4-yl}oxy)pyrido[3,4-d]pyrimidin-4-ol] came in with an IC50 of at most 100 nM.

In turn, `Oc1nc(Oc2cnn(Cc3cccc(Cl)c3)c2)nc2cnccc12` [Example 122, 2-({1-[(3-chlorophenyl)methyl]-1H-pyrazol-4-yl}oxy)pyrido[3,4-d]pyrimidin-4-ol] showed an IC50 of at most 100 nM. In the case of `Oc1nc(Oc2cnn(C3CCN(Cc4ccccc4)CC3)c2)nc2cnccc12` [Example 123, 2-{[1-(1-benzylpiperidin-4-yl)-1H-pyrazol-4-yl]oxy}pyrido[3,4-d]pyrimidin-4-ol] it was at most 100 nM; in that of `Oc1nc(Oc2cnn(CCN3CCOCC3)c2)nc2cnccc12` [Example 124, 2-({1-[2-(morpholin-4-yl)ethyl]-1H-pyrazol-4-yl}oxy)pyrido[3,4-d]pyrimidin-4-ol], at most 100 nM; in that of `Oc1nc(Oc2cnn([C@@H]3CCNC3)c2)nc2cnccc12` [Example 125, 2-({1-[(3R)-pyrrolidin-3-yl]-1H-pyrazol-4-yl}oxy)pyrido[3,4-d]pyrimidin-4-ol], at most 100 nM. As for `CCS(=O)(=O)N1CC[C@@H](n2cc(Oc3nc(O)c4ccncc4n3)cn2)C1` [Example 126, 2-({1-[(3R)-1-(ethanesulfonyl)pyrrolidin-3-yl]-1H-pyrazol-4-yl}oxy)pyrido[3,4-d]pyrimidin-4-ol], the figure is at most 100 nM.
